# Source: paper PMC9166630, “SAR Probing of KX2-391 Provided Analogues With Juxtaposed Activity Profile Against Major Oncogenic Kinases” (Frontiers in Oncology, 2022)
# “And” between values parts separate entries of the source, which are not always exact repeats. Identical values can stand only once.
# Experiments:
# [1] = test system: ERK1/2; test: Human phosphokinase array, ERK1/2; type: cell-based
# Text: (§1) The kinome tree representation (Figure 7C), which was generated by raising the Kinase Score cut-off to >1.2, confirmed that, unlike tirbanibulin and our prototype molecule KX1-136, 4e’s effects were more observable on kinases other than the Src family such as the Eph and TEC families. […] Therefore, we screened compound 4e using the Human Phospho-Kinase Array® kit from R&D systems (Minneapolis, MN, USA). In this system, 35 phosphorylated YK and serine-threonine kinase (STK) enzymes in the untreated (control) and treated (test) HL60 cell lysates were captured on nitrocellulose membrane, pre-spotted with phosphokinase-specific capture antibodies, and then visualized by detection antibody cocktails (Figure 8). The difference in the spot intensity between untreated (control) and treated cells is proportional to change in the amount of the phosphorylated protein induced by 4e.
# (§2) The phosphorylation profile of 48 kinases was performed using the Proteome Profiler Human Phospho-Kinase Antibody Array Kit by R&D Systems (Minneapolis, MN, USA) according to the protocol. Briefly, the total cellular protein was extracted using the Lysis buffer and was quantified using Bio-Rad DC Protein Assay kit (Hercules, CA, USA). Nitrocellulose membrane set (A&B), pre-spotted with kinase-specific capture antibodies, were first blocked with Array Buffer-1 at RT for 30 min on a rocking platform shaker. Approximately 600 µg of protein concentrate was diluted in the buffer provided and was added onto the membrane set, and the membranes were incubated overnight at 4°C in an 8-well plate. Subsequently, membranes were washed with Wash Buffer and incubated with appropriate Detection Antibody cocktails for 2 h at RT. Streptavadin-HRP (1:2000) was added onto membranes and incubated for 30 min at RT. Membranes were washed, and Chemiluminescent Detection Reagents 1&2 were applied in equal volumes for detection. The signals were detected on C-DiGit®Blot Scanner (LI-COR, Odyssey Imaging Systems, Lincoln, Nebraska, USA) using Image Studio 5.0 software.
# [2] = test system: GSK-3α/β; test: Human phosphokinase array, GSK-3α/β; type: cell-based
# Text: as §1, §2
# [3] = molecular target: T1, TEC (Homo sapiens, UniProt P42680); test: PamChip tyrosine kinase microarray, TEC; type: biochemical; details: 4e 0.1 µM, HL60 lysate
# T1 construct: endogenous in cells; host or cells: HL60 lysate
# T1 sequence (P42680 1-631): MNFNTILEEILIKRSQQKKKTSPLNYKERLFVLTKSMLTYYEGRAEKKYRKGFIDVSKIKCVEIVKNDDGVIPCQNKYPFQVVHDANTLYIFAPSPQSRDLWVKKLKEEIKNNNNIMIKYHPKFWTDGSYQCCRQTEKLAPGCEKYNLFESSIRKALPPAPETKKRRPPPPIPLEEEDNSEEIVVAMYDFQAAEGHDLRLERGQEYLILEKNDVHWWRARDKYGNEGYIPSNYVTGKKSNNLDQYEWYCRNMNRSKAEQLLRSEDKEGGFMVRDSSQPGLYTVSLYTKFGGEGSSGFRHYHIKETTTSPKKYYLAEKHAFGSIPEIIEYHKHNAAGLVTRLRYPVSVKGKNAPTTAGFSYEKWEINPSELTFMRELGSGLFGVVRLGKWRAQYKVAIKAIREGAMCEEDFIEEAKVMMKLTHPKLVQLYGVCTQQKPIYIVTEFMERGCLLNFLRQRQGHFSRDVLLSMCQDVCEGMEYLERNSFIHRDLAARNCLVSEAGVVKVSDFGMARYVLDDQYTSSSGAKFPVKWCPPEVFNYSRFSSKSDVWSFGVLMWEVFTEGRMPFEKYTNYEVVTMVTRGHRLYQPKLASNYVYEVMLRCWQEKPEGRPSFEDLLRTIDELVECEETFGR
# Protocol: (§3) The changes in kinase activities induced by treatment with 4e were monitored within the HL60 cell lines using PamGene’s (Hertogenbosch, Netherlands) PamChip® peptide microarray profiler, which quantifies the activities of 144 tyrosine kinases (YK) ([29], [30]) (Figure 7). Results are provided as a log fold change (LFC) heatmap and Mean Kinase Statistic. From the LFC it is apparent that compound 4e, at a concentration of 0.1 µM, induced sizable changes to the activity of several kinases within the cell signaling YK profile (Figure 7A).
# (§4) An Upstream Kinase tool was used to generate a putative list of kinases responsible for phosphorylating the phospho-sites on the PamChip (Figure 7B) ([31]). It is an interpretation and is highly dependent on the contents of the underlying phosphorylation databases. A Kinase Score was used for ranking kinases based on their significance and specificity in terms of the set of peptides used for the corresponding kinase. Kinase Statistics indicates the overall change of the peptide set that represents the kinase. Kinase statistics value <0 indicates lower kinase activity in the compound spiked lysate and vice versa ([32], [33]). Table 5 lists the 20 most changed kinases within treated HL60 cell lysates by 0.1 μM 4e, ranked according to their Kinase Score.
# (§5) The compound 4e was spiked into HL60 cell lysate at different concentrations (0.001, 0.01, 0.1, 1, 10 and 50 μM). In addition, DMSO was also spiked in HL60 lysate at low concentration (2% v/v) as control. Samples were profiled on PamGene’s Tyrosine Kinase (PTK) arrays in technical replicates, covering a total of 196 phosphorylation sites. Frozen HL60 cultured cell pellet was sent to PamGene. At PamGene, cells were lysed using a lysis buffer and proteases inhibitors cocktail. Protein concentration was measured using standard Bradford assay as per PamGene SOPs. These lysates were further used for generating the PTK activity profiles. For spiking, 4e was received as powder form and dissolved in DMSO at PamGene facility followed by storing at -20°C in small aliquots. PamGene used its in-house bioinformatics toolbox in combination with other methods to generate hypotheses of signaling pathways.
# [4] = test system: PDGFR[beta]; test: PamChip tyrosine kinase microarray, PDGFR[beta]; type: biochemical, human; details: 4e 0.1 µM, HL60 lysate
# Protocol: as §3, §4, §5
# [5] = test system: JNK1/2/3; test: Human phosphokinase array, JNK1/2/3; type: cell-based
# Text: as §1, §2
smiles,measurement,setting,value
"O=C(Cc1ccc(NC(=O)c2cccc(Cl)c2)cc1)NCc1ccccc1 [Compound 4e, N-(4-(2-(benzylamino)-2-oxoethyl)phenyl)-3-chlorobenzamide]",reduction of ERK1/2 activity,"[1]; HL60, kinase profiling",> 99%
same,"phosphokinase signal after 4e exposure, ERK1/2","[1]; HL60 cell lysate, treated",1.05
same,"% Change, ERK1/2",[1]; treated vs untreated HL60,-99.41%
same,"Change in Signal, ERK1/2",[1]; treated vs untreated HL60,-177.83
same,"phosphokinase signal after 4e exposure, GSK-3α/β","[2]; HL60 cell lysate, treated",102.64
same,"Change in Signal, GSK-3α/β",[2]; treated vs untreated HL60,22.94
same,"% Change, GSK-3α/β","[2]; treated vs untreated HL60, Ser9 phosphorylation",28.78% and 28%
same,Mean Final Score,[3],1.9733
same,Mean Kinase Statistic,[3],-0.5256
same,Mean Significance Score,[3],1.3350
same,Mean Specificity Score,[3],0.6383
same,Mean Final Score,[4],1.8565
same,Mean Kinase Statistic,[4],-0.5885
same,Mean Significance Score,[4],1.2570
same,Mean Specificity Score,[4],0.5995
same,"phosphokinase signal after 4e exposure, JNK1/2/3","[5]; HL60 cell lysate, treated",20.91
same,"% Change, JNK1/2/3",[5]; treated vs untreated HL60,-50.61%
same,"Change in Signal, JNK1/2/3",[5]; treated vs untreated HL60,-21.43
